Where two headings read alike, the source gives them in different places.
What was measured:
[1] = tested on: wild mustard algae (Miami strain)
Protocol: (§1) Efficacy of zinc ions (in the form of zinc sulfate) was evaluated using two strains of very difficult to control wild mustard algae, both isolated from a pool treated with BAQUACIL (Arch Chemicals, Norwalk, CT). All experiments were conducted in 125 ml Erlenmeyer flasks that contained 50 ml of Jaworski's medium. To increase the surface area in the flasks each flask also contained 50 6 mm glass beads. The tests flasks were illuminated using a combination incandescent and fluorescent plant grow lights with 16 hours of illumination and 8 hours of darkness. Temperature was maintained at 80° F+/−5° F. The flasks were grown without agitation or additional aeration. One ml of a pooled mid-log culture was used to used to inoculate the test flasks to an initial optical density of 95%T. This yields an initial concentration of approximately […] algae per ml. Efficacy was evaluated in the presence and absence of a sub-optimal concentration of a primary sanitizer (PHMB). Growth was measured optically at 450 nm using a 1 inch cell in a Spectronic 20. All experiments used five replicates. The results of the optical readings were arithmetically averaged. […] In FIGS. 1 and 2, PHMB concentrations were held at 4 PPM, and zinc ion concentration was varied from 0 to 3 PPM. Growth over time was measured and plotted.

[2] = tested on: wild mustard algae (Schwab strain)
Protocol: as §1

[3] = tested on: Chlorella pyrenoidosa, Pleurochloris pyrenoidosa and Phormidium sp.; details: FIG. 4
Protocol: This study was conducted in test pools without bathers. The water was initially balanced and proper water balance was maintained throughout the study. Each pool was inoculated weekly with mixed bacterial, fungal and algal cultures. The algae inoculations were prepared using the methodology below.
Algal cultures were maintained in 5 liter carboys at 22° C. under fluorescent light with a 12 hour on/off cycle. Air is continuously bubbled through the medium. Stock cultures of Chlorella pyrenoidosa and Pleurochloris pyrenoidosa are maintained in Kratz & Meyers medium and Phormidium sp., a filamentous blue-green alga, is maintained in BG-11.
150 milliliters of a combined inoculum containing equal amounts of each strain is added weekly per 10,000 gallons of water. Typically the cultures contain approximately 2×10^7 cells per milliliter; therefore approximately 2×10^9 cells are added per pool each week. However, if time allows, determine the actual number of algae in each sample by heamocytometry, using a Neubauer heamocytometer. Each pool was chemically treated using the procedure below.
A. Test Pool 7: Baquacil CDX +Didecyl dimethyl ammonium chloride (DDAC) • 1. […]
Observations were taken on a business daily basis and the pool was scored using the following 0-4 scale. • 0=no trace of algae • 1=trace amounts • 2=small patches • 3=large patches • 4=sides and bottom more than 25% covered by algae

[4] = 2 or 3 ppm zinc ions, PHMB 4 PPM

O=S(=O)([O-])[O-].[Zn+2] [zinc sulfate]
reduction of algal growth [1, 4]: approximately 50%
algaestatic activity ([1]; FIG. 2, PHMB held at 4 PPM, zinc ion 0 to 3 PPM, growth measured optically at 450 nm): moderate algaestatic activity
reduction of algal growth [2, 4]: approximately 50%
algaestatic activity ([2]; FIG. 1, PHMB held at 4 PPM, zinc ion 0 to 3 PPM, growth measured optically at 450 nm): moderate algaestatic activity
algaestatic performance (visual algae score 0-4) ([3]; Test Pool 7: Baquacil CDX + DDAC, single 4.2 ppm dosage of zinc sulfate (1.5 PPM zinc) after 102 days): improved algaestatic performance
algaestatic performance (visual algae score 0-4) ([3]; Test Pool 8: Baquacil CDX control, 4.2 ppm dosages of zinc sulfate (1.5 PPM zinc) after 33, 40 and 61 days): improved algaestatic performance

From US8440212B2, “Compositions for treating water systems” (Arch Chemicals, Inc., priority 2009, dated 2013)
